Results published in patent US7084166B2, “Bis-heterocyclic compounds with antitumour and chemosensitising activity” (Sigma-Tau Industrie Farmaceutichee Riunite S.p.A., priority 2000, dated 2006).

Experiments:
Type in all cases: cell-based
[1] = system: LoVo (human colon adenocarcinoma); assay: Cytotoxicity test on sensitive tumour cell lines (sulforodamine B test); details: Homo sapiens, LoVo; 24 h incubation, survival after 48 h; ± S.D.; read-out: antiproliferative activity IC50, Lovo
Experimental: (§1) This test was used to evaluate the survival of the human cell lines MCF-7 (human mammary carcinoma), LoVo (human colon adenocarcinoma), and MES-SA (human uterine sarcoma). The tumour cells were incubated with the compound, at scalar concentrations, (500 μM÷0.97 μM) for 24 hours; the compound was then removed and cell survival was evaluated after 48 hours using the sulforodamine B test (J. Natl. Cancer Inst. 82, 1107–1112). The antiproliferative activity of the compounds was evaluated in terms of the IC50 (concentration of the molecule that inhibits 50% of cell survival) processed with a curve-fitting program (Am. J. Physiol. 1978., 235, E97–E102) and expressed as μM±S.D.

[2] = system: MCF-7 (human mammary carcinoma); assay: as above; details: Homo sapiens, MCF7; 24 h incubation, survival after 48 h; ± S.D.; read-out: antiproliferative activity IC50, MCF-7
Experimental: as §1

[3] = system: MES-SA (human uterine sarcoma); assay: as above; details: Homo sapiens, MES-SA; 24 h incubation, survival after 48 h; ± S.D.; read-out: antiproliferative activity IC50, Mes-Sa
Experimental: as §1

[4] = system: HL60 cells (acute promyelocytic leukaemia); assay: Cell differentiation by reduction of nitroblue tetrazolium (NBT), with suboptimal ATRA; details: combined with suboptimal doses of ATRA
Experimental: (§2) The second line used was the HL60 cell line which responds to ATRA (but is less sensitive than the NB4 cell line).
(§3) The HL60 and NB4 cells were seeded at a density of 150,000 cells/ml in RPMI 1640 medium containing 10% foetal calf serum, and were treated with the tested compounds in the presence and absence of suboptimal doses of ATRA (5–10 nM for NB4 and 0.5 μM for HL60, respectively) in the dark, and returned to the incubator for 3 days without ever replacing the culture medium.
(§4) To analyse the differentiative effect of the tested compounds vs ATRA, on the third day of treatment 500,000 viable cells were harvested from each sample, centrifuged for 10 minutes at 1.000 rpm and resuspended in 1 ml of RPMI 1640 medium containing 10% foetal calf serum, 1 mg/ml of nitroblue tetrazolium (NBT) and 100 ng of PMA (phorbol 12-myristate 13-acetate).
(§5) The cells thus resuspended were incubated in the dark at 37° C. for 60 minutes.
(§6) At the end of the incubation, the cell suspension was centrifuged for 10 minutes at 10,000 rpm; the pellet obtained was then resuspended in 1 ml of PBS containing 10% Triton X-100 and sonicated to lysis.
(§7) Spectrophotometric readings of the samples were then taken at a wavelength of 540 nm: samples containing differentiated cells shifted towards a violet colour, whereas control samples and/or samples with non-differentiated cells were colourless or, at any rate, much less intensely coloured.
(§8) The AC50 (Activating Concentration) is the concentration at which the tested compound induces 50% of cell differentiation.
(§9) Fold Induction is the increase in the differentiation value of the cell sample treated with the tested compound +ATRA vs the value of the cell sample treated with ATRA alone. This value provides an indication of the ability (potency) of the tested compound to enhance ATRA induced cell differentiation.

[5] = system: LoVo-Dx (human colon adenocarcinoma); assay: Cytotoxicity test on resistant tumour cell lines, tested compound alone; details: Homo sapiens, LoVo/DX; 24 h incubation, survival after 48 h; ± SD
Experimental: (§10) This test was used to evaluate the survival of human cell lines resistant to doxorubicin (about 100 times) and cross-resistant to daunorubicin, actinomycin D, mitoxantrone, vincristine, vinblastin, taxol, colchicine, and etoposide.
(§11) The following cell lines were used: MCF-7-Dx (human mammary carcinoma), LoVo-Dx (human colon adenocarcinoma), MES-SA Dx (human uterine sarcoma).
(§12) Before using the association doxorubicin-tested compound, the cytotoxicity of the cells was evaluated with the tested compound (alone) as follows: the cells were incubated with the compound, at scalar concentrations (500 μM÷0.97 μM), for 24 hours; the compound was then removed and cell survival was evaluated after 48 hours with the above-mentioned sulforodamine B test. The antiproliferative activity of the compounds was evaluated in terms of IC50 (concentration of the compound that inhibits 50% of cell survival) processed with the above-mentioned curve-fitting program.

[6] = system: MES-SA Dx (human uterine sarcoma); assay: as above; details: Homo sapiens, MES-SA Dx; 24 h incubation, survival after 48 h; ± SD
Experimental: as §10, §11, §12

[7] = system: MCF-7-Dx (human mammary carcinoma); assay: as above; details: Homo sapiens, MCF7/DX, 24 h incubation, survival after 48 h; ± SD
Experimental: as §10, §11, §12

[8] = system: NB4 cells (acute promyelocytic leukaemia); assay: Cell differentiation by reduction of nitroblue tetrazolium (NBT), with suboptimal ATRA; details: combined with suboptimal doses of ATRA, NBT
Experimental: The first line used was the NB4 cell line, bearing the t(15;17) chromosomal translocation which generates the fusion protein PML/RARα. This line is very sensitive to the differentiative action of pharmacological doses of ATRA (10^−7–10^−6 M).
as §3, §4, §5, §6, §7, §8, §9

[9] = system: HL60 cells (acute promyelocytic leukaemia); assay: Flow cytofluorimetric analysis of cell cycle; details: for G0/G1 / G2/M / S: day 3
Experimental: as §2, §3
To assess the effect of the tested compounds on the various phases of the cell cycle, on the third day of treatment 500,000 cells were harvested, centrifuged at 1,000 rpm for 10 minutes, washed twice in PBS w/o (PBS without calcium and magnesium) and fixed in a solution of 50% PBS w/o+50% methanol/acetone (1:4 v/v) for at least 1 hour; the cells were then centrifuged as described, washed in PBS w/o and centrifuged again.
200 μl of propidium iodide 100 μg/ml and 200 μl of RNase 150 kU/mg were then added to the cell pellet.
After a 30-min incubation in the dark at room temperature, the samples were analysed by flow cytofluirometry.

In the case of `OCCCCC(c1c[nH]c2cc3c(cc12)OCO3)c1c[nH]c2cc3c(cc12)OCO3` [ST 1422, 5-hydroxy-1,1-di-(5,6-methylenedioxy-indol-3-yl)-pentane], the IC50 [1] is reported as 23 ± 4.4 µM, the IC50 [2] is reported as 43.1 ± 1.2 µM and the IC50 [3] is reported as 79.3 ± 7.8 µM. For the same compound, the AC50 ([4]; Homo sapiens, HL-60, 72 h, 3 days, read-out: AC50 (concentration at which the tested compound induces 50% of cell differentiation)) was 13.6 ± 2.6 µM, the “fold induction (differentiation, compound + ATRA vs ATRA alone)” value [4] was 2.2 and the IC50 [5] was 22.3 ± 2.9 µM. The IC50 [6] was 73.3 ± 2.7 µM, the IC50 [7] was 40.1 ± 1.2 µM and the AC50 ([8]; Homo sapiens, NB-4, 72 h, 3 days, read-out: AC50 (concentration at which the tested compound induces 50% of cell differentiation)) was 9.8 ± 0.1 µM. The “fold induction (differentiation, compound + ATRA vs ATRA alone)” value [8] was 1.85, the G0/G1 ([9]; compound 1 μM + ATRA 0.5 μM) was 66.8 and the G2/M ([9]; compound 1 μM + ATRA 0.5 μM) was 11.0. For the same compound, the S ([9]; compound 1 μM + ATRA 0.5 μM) was 22.2, the G0/G1 ([9]; compound 5 μM + ATRA 0.5 μM) was 65.1 and the G2/M ([9]; compound 5 μM + ATRA 0.5 μM) was 11.4. It also gave an S ([9]; compound 5 μM + ATRA 0.5 μM) of 23.5, a G0/G1 ([9]; compound 10 μM + ATRA 0.5 μM) of 62.5 and a G2/M ([9]; compound 10 μM + ATRA 0.5 μM) of 12.5. It also gave an S ([9]; compound 10 μM + ATRA 0.5 μM) of 25.0, a G0/G1 ([9]; compound 50 μM + ATRA 0.5 μM) of 75.7 and a G2/M ([9]; compound 50 μM + ATRA 0.5 μM) of 13.8. The S ([9]; compound 50 μM + ATRA 0.5 μM) was 10.5, the “effect of the compound alone on induction of apoptosis (in words)” value ([9]; compound alone) was “showed no effect on the induction of apoptosis” and the G0/G1 ([9]; compound alone 1 μM) was 56.2. For the same compound, the G2/M ([9]; compound alone 1 μM) was 10.0, the S ([9]; compound alone 1 μM) was 33.8 and the G0/G1 ([9]; compound alone 5 μM) was 57.6. It also gave a G2/M ([9]; compound alone 5 μM) of 10.4, an S ([9]; compound alone 5 μM) of 32.0 and a G0/G1 ([9]; compound alone 10 μM) of 57.8. For the same compound, the G2/M ([9]; compound alone 10 μM) was 10.5, the S ([9]; compound alone 10 μM) was 31.7 and the G0/G1 ([9]; compound alone 50 μM) was 65.8. The G2/M ([9]; compound alone 50 μM) was 16.4 and the S ([9]; compound alone 50 μM) was 17.8.
